Molecular target: T1, Carbonic anhydrase 4 (Bos taurus, UniProt Q95323)
T1 sequence (Q95323 whole entry): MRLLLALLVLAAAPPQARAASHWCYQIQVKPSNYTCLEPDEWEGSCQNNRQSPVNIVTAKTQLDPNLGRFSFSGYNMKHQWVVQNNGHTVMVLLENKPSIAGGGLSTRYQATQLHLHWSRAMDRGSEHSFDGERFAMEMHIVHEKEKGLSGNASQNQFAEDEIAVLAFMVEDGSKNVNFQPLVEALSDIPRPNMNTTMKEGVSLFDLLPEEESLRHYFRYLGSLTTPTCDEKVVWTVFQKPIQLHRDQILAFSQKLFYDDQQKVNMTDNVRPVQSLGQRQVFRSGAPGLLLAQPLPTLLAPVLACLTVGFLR

| SMILES | Ki [µM] |
| --- | --- |
| NC(=O)Nc1ccc(S(=O)(=O)Nc2ccc(S(N)(=O)=O)cc2)cc1 | 0.02 |
| NS(=O)(=O)c1ccc(CC/N=C/c2ccncc2)cc1 | 0.012 |
| NS(=O)(=O)c1nnc(NC(=O)Nc2ccc(Cl)c(Cl)c2)s1 | 0.008 |
| NS(=O)(=O)c1ccc(CC/N=C/c2cccc([N+](=O)[O-])c2)cc1 | 0.14 |
| Cn1cccc1/C=N/CCc1ccc(S(N)(=O)=O)cc1 | 0.008 |
| NS(=O)(=O)c1ccc(CC/N=C/c2ccc[nH]2)cc1 | 0.01 |
| NS(=O)(=O)c1ccc(CCNC(=S)Nc2ccccc2)cc1 | 0.07 |
| NS(=O)(=O)c1ccc(CCNC(=S)NC(=O)Nc2ccc(Cl)c(Cl)c2)cc1 | 0.024 |
| NC(=O)Nc1ccc(S(=O)(=O)Nc2cccc(S(N)(=O)=O)c2)cc1 | 0.025 |
| Cc1ccc(S(=O)(=O)NC(=O)Nc2c(S(N)(=O)=O)cc(S(N)(=O)=O)c(Cl)c2Cl)cc1 | 0.014 |
| NS(=O)(=O)c1ccc(CC/N=C/c2ccccc2OC(=O)NS(=O)(=O)c2ccc(Cl)cc2)cc1 | 0.16 |
| Cn1cccc1/C=N/Cc1ccc(S(N)(=O)=O)cc1 | 0.01 |
| Cc1ccc(S(=O)(=O)NC(=O)Oc2ccccc2/C=N/CCc2ccc(S(N)(=O)=O)cc2)cc1 | 0.12 |
| NS(=O)(=O)c1ccc(CC/N=C/c2ccccc2OC(=O)NS(=O)(=O)c2ccccc2)cc1 | 0.011 |

Reference: ChEMBL document CHEMBL1140631, “Carbonic anhydrases as targets for medicinal chemistry” (Bioorg Med Chem, 2007)
